Results taken from US20250368649A1, “TETRAHYDROPYRIDOPYRIMIDINE PAN-KRAS INHIBITORS” (Mirati Therapeutics, Inc., priority 2022, published 2025).

How the values were obtained:
PSN1 cells = assay: Inhibition of KRas-mediated phosphorylation of ERK (Cisbio HTRF pERK), PSN1 cells; assay type: cell-based; conditions: Homo sapiens, PSN1, 3 h
How it was run: (§1)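 Seeding density of 6,000 cells per well was used, with cultures kept in RPMI/10% FBS from day 1.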

HCT116 cells = assay: Inhibition of KRas-mediated phosphorylation of ERK (Cisbio HTRF pERK), HCT116 cells; assay type: cell-based; conditions: Homo sapiens; for IC50: HCT-116, 3 h, 3 hr compound incubation; for inhibition at 0.1 µM: HCT-116, single point at 100 nM, 3 hrs compound incubation
H460 cells = assay: Inhibition of KRas-mediated phosphorylation of ERK (Cisbio HTRF pERK), H460 cells; assay type: cell-based; conditions: Homo sapiens; for IC50: NCI-H460, 3 h, 3 hr compound incubation; for inhibition at 0.1 µM: NCI-H460, single point at 100 nM, 3 hrs compound incubation
KRas G12V = KRas G12V (Homo sapiens, UniProt P01116, G12V); assay: biochemical; conditions: Binding to KRas (IC50 nM) G12V, TR-FRET displacement, KRas G12V
Sequence of KRas G12V (P01116 1-169 isoform P01116-2 G12V): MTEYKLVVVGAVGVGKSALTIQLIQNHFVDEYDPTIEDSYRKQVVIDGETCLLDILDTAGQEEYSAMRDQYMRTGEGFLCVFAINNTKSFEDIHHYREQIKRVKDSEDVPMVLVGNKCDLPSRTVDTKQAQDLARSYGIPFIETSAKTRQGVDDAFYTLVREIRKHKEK

A549 cells = assay: Inhibition of KRas-mediated phosphorylation of ERK (Cisbio HTRF pERK), A549 cells; assay type: cell-based; conditions: Homo sapiens; for IC50: A549, 3 h, 3 hr compound incubation; for inhibition at 0.1 µM: single point at 100 nM, 3 hrs compound incubation
MKN1 cells = assay: Inhibition of KRas-mediated phosphorylation of ERK (Cisbio HTRF pERK), MKN1 cells; assay type: cell-based; conditions: Homo sapiens
How it was run: as §1

KRas G12D = KRas G12D (Homo sapiens, UniProt P01116, G12D); assay: biochemical; conditions: Binding to KRas (IC50 nM) G12D, TR-FRET displacement, KRas G12D
Sequence of KRas G12D (P01116 1-169 isoform P01116-2 G12D): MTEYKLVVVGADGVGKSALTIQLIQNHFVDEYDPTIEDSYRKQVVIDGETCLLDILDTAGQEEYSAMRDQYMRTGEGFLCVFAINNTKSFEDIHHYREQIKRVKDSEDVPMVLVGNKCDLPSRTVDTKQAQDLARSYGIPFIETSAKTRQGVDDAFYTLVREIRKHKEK

H358 cells = assay: Inhibition of KRas-mediated phosphorylation of ERK (Cisbio HTRF pERK), H358 cells; assay type: cell-based; conditions: Homo sapiens; for IC50: NCI-H358, 3 h, 3 hr compound incubation; for inhibition at 0.1 µM: NCI-H358, single point at 100 nM, 3 hrs compound incubation
ASPC1 cells = assay: Inhibition of KRas-mediated phosphorylation of ERK (Cisbio HTRF pERK), ASPC1 cells; assay type: cell-based; conditions: Homo sapiens, AsPC-1 cells; for IC50: ASPC1, 3 h, 3 hr compound incubation; for inhibition at 0.1 µM: ASPC1, single point at 100 nM, 3 hrs compound incubation
H727 cells = assay: Inhibition of KRas-mediated phosphorylation of ERK (Cisbio HTRF pERK), H727 cells; assay type: cell-based; conditions: Homo sapiens; for IC50: NCI-H727, 3 h, 3 hr compound incubation; for inhibition at 0.1 µM: NCI-H727, single point at 100 nM, 3 hrs compound incubation
KRas G12R = KRas G12R (Homo sapiens, UniProt P01116, G12R); assay: biochemical; conditions: Binding to KRas (IC50 nM) G12R, TR-FRET displacement, KRas G12R
Sequence of KRas G12R (P01116 1-169 isoform P01116-2 G12R): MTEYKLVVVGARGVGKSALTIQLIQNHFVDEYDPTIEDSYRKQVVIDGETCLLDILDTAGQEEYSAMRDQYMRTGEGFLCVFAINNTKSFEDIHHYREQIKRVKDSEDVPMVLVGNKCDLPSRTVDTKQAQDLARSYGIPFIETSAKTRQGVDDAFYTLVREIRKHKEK

[1] = 3 hour compound incubation, Cisbio pERK HTRF
[2] = MKN-1, 3 hour compound incubation, Cisbio pERK HTRF

Compound	IC50 (KRas G12V) [nM]	IC50 (KRas G12D) [nM]	IC50 (KRas G12R) [nM]	IC50 (PSN1 cells; [1]) [nM]	IC50 (MKN1 cells; [2]) [nM]	IC50 (ASPC1 cells; Cisbio pERK HTRF) [nM]	IC50 (H727 cells; Cisbio pERK HTRF) [nM]	IC50 (HCT116 cells; Cisbio pERK HTRF) [nM]	IC50 (H460 cells; Cisbio pERK HTRF) [nM]	IC50 (A549 cells; Cisbio pERK HTRF) [nM]	inhibition at 0.1 µM (HCT116 cells) [%]	inhibition at 0.1 µM (H460 cells) [%]	inhibition at 0.1 µM (A549 cells) [%]	inhibition at 0.1 µM (H358 cells) [%]	also measured
CCc1c(F)ccc2cc(O)cc(N3CCc4c(nc(OC[C@@]56CCCN5C[C@H](F)C6)nc4N4CCCn5nc(C(=O)N6CC7(CCCN7)C6)cc5C4)C3)c12 [Example 277, (5-(7-(8-ethyl-7-fluoro-3-hydroxynaphthalen-1-yl)-2-(((2R,7aS)-2-fluorohexahydro-1H-pyrrolizin-7a-yl)methoxy)-5,6,7,8-tetrahydropyrido[3,4-d]pyrimidin-4-yl)-5,6,7,8-tetrahydro-4H-pyrazolo[1,5-a][1,4]diazepin-2-yl)(2,5-diazaspiro[3.4]octan-2-yl)methanone]	< 2	< 2	< 2	> 10000	41.7	37	210	–	–	–	-2	12	25	64	–
CCc1c(F)ccc2cc(O)cc(N3CCc4c(nc(OC[C@@]56CCCN5C[C@H](F)C6)nc4N4CCCn5nc(C(=O)N6CCC7(CCN7)C6)cc5C4)C3)c12 (stereo partly drawn) [Example 278, (5-(7-(8-ethyl-7-fluoro-3-hydroxynaphthalen-1-yl)-2-(((2R,7aS)-2-fluorohexahydro-1H-pyrrolizin-7a-yl)methoxy)-5,6,7,8-tetrahydropyrido[3,4-d]pyrimidin-4-yl)-5,6,7,8-tetrahydro-4H-pyrazolo[1,5-a][1,4]diazepin-2-yl)(1,6-diazaspiro[3.4]octan-6-yl)methanone]	< 2	< 2	< 2	> 10000	156	68	659	–	–	–	-6	-10	22	12	–
CCc1c(F)ccc2cc(O)cc(N3CCc4c(nc(OC[C@@]56CCCN5C[C@H](F)C6)nc4N4CCCSCC4)C3)c12 [Example 417, 5-ethyl-6-fluoro-4-(2-(((2R,7aS)-2-fluorohexahydro-1H-pyrrolizin-7a-yl)methoxy)-4-(1,4-thiazepan-4-yl)-5,6-dihydropyrido[3,4-d]pyrimidin-7(8H)-yl)naphthalen-2-ol]	< 2	13	< 2	5700	29.3	208	128	273	84	63	–	–	–	–	–
CCc1c(F)ccc2cc(O)cc(N3CCc4c(nc(OCC5(CN(C)C)CC5)nc4N4CCCn5nncc5C4)C3)c12 [Example 430, 4-(4-(7,8-dihydro-4H-[1,2,3]triazolo[1,5-a][1,4]diazepin-5(6H)-yl)-2-((1-((dimethylamino)methyl)cyclopropyl)methoxy)-5,6-dihydropyrido[3,4-d]pyrimidin-7(8H)-yl)-5-ethyl-6-fluoronaphthalen-2-ol]	< 2	< 2	< 2	> 10000	94.9	134	269	1030	439	592	–	–	–	–	–

Further lines, with some results ahead:

IC50 (KRas G12V) [nM]	IC50 (KRas G12D) [nM]	IC50 (KRas G12R) [nM]	IC50 (PSN1 cells; [1]) [nM]	IC50 (MKN1 cells; [2]) [nM]	IC50 (ASPC1 cells; Cisbio pERK HTRF) [nM]	IC50 (H727 cells; Cisbio pERK HTRF) [nM]	IC50 (HCT116 cells; Cisbio pERK HTRF) [nM]	IC50 (H460 cells; Cisbio pERK HTRF) [nM]	IC50 (A549 cells; Cisbio pERK HTRF) [nM]	Compound	inhibition at 0.1 µM (HCT116 cells) [%]	inhibition at 0.1 µM (H460 cells) [%]	inhibition at 0.1 µM (A549 cells) [%]	inhibition at 0.1 µM (H358 cells) [%]	also measured
< 2	2	3	–	–	–	–	–	–	–	C[C@@H]1C[C@@H]1c1c(Cl)cc(O)cc1N1CCc2c(nc(OC[C@@]34CCCN3C[C@H](F)C4)nc2N2CCC[C@]3(CNS(=O)(=O)N3)C2)C1 (stereo in doubt) [Example 654, (R)-7-(7-(3-chloro-5-hydroxy-2-(cis-2-methylcyclopropyl)phenyl)-2-(((2R,7aS)-2-fluorotetrahydro-1H-pyrrolizin-7a(5H)-yl)methoxy)-5,6,7,8-tetrahydropyrido[3,4-d]pyrimidin-4-yl)-2-thia-1,3,7-triazaspiro[4.5]decane 2,2-dioxide]	–	–	–	–	IC50 (PSN1 cells; 3 hr compound incubation): 2660 nM; IC50 (HCT116 cells): 191 nM; IC50 (H460 cells): 131 nM; IC50 (A549 cells): 334 nM; IC50 (MKN1 cells; MKN-1, 3 hr compound incubation): 38.7 nM; IC50 (H358 cells): 72 nM; IC50 (ASPC1 cells): 197 nM; IC50 (H727 cells): 323 nM
< 2	2	< 2	> 10000	294	52	302	–	–	–	CCc1c(F)ccc2cc(O)cc(N3CCc4c(nc(OC[C@@]56CCCN5C[C@H](F)C6)nc4N4CCCn5nc(C(=O)N6CCC7CC6CN7)cc5C4)C3)c12 (stereo partly drawn) [Example 235, 2,6-diazabicyclo[3.2.1]octan-2-yl(5-(7-(8-ethyl-7-fluoro-3-hydroxynaphthalen-1-yl)-2-(((2R,7aS)-2-fluorohexahydro-1H-pyrrolizin-7a-yl)methoxy)-5,6,7,8-tetrahydropyrido[3,4-d]pyrimidin-4-yl)-5,6,7,8-tetrahydro-4H-pyrazolo[1,5-a][1,4]diazepin-2-yl)methanone]	5	2	13	8	inhibition at 0.1 µM (ASPC1 cells): 30%; inhibition at 0.1 µM (H727 cells): -5%
4	5	4	> 10000	63	185	327	–	–	–	CCc1c(F)ccc2cc(O)cc(N3CCc4c(nc(OC[C@@]56CCCN5C[C@H](F)C6)nc4N4CCCn5nc(CC(=O)N(C)C)cc5C4)C3)c12 [Example 317, 2-(5-(7-(8-ethyl-7-fluoro-3-hydroxynaphthalen-1-yl)-2-(((2R,7aS)-2-fluorohexahydro-1H-pyrrolizin-7a-yl)methoxy)-5,6,7,8-tetrahydropyrido[3,4-d]pyrimidin-4-yl)-5,6,7,8-tetrahydro-4H-pyrazolo[1,5-a][1,4]diazepin-2-yl)-N,N-dimethylacetamide]	13	1	12	19	–
< 2	< 2	< 2	1420	4.2	5	6	214	41	20	CCc1c(F)ccc2cc(O)cc(N3CCc4c(nc(OC[C@@]56CCCN5C[C@H](F)C6)nc4N4CCCn5nc(C(=O)NC)c(OC)c5C4)C3)c12 [Example 320, 5-(7-(8-ethyl-7-fluoro-3-hydroxynaphthalen-1-yl)-2-(((2R,7aS)-2-fluorohexahydro-1H-pyrrolizin-7a-yl)methoxy)-5,6,7,8-tetrahydropyrido[3,4-d]pyrimidin-4-yl)-3-methoxy-N-methyl-5,6,7,8-tetrahydro-4H-pyrazolo[1,5-a][1,4]diazepine-2-carboxamide]	17	56	90	103	IC50 (H358 cells; Cisbio pERK HTRF): 5 nM; inhibition at 0.1 µM (ASPC1 cells): 99%; inhibition at 0.1 µM (H727 cells): 70%
8	3	7	> 10000	531	289	517	–	–	–	CCc1c(F)ccc2cc(O)cc(N3CCc4c(nc(OC[C@@]56CCCN5C[C@H](F)C6)nc4N4CCCn5nc(CNS(=O)(=O)N(C)C)cc5C4)C3)c12 [Example 336, 7-(8-ethyl-7-fluoro-3-hydroxy-1-naphthyl)-2-(((2R,7aS)-2-fluorotetrahydro-1H-pyrrolizin-7a(5H)-yl)methoxy)-4-(2-((dimethylsulfamoyl)amino)methyl-7,8-dihydro-4H-pyrazolo[1,5-a][1,4]diazepin-5(6H)-yl)-6,8-dihydro-5H-pyrido[3,4-d]pyriimidine]	-11	1	-24	-26	–
